The values that follow come from patent US20020065219A1, “Water soluble thiazolyl peptide derivatives” (priority 2000, published 2002).

Each structure is given as a SMILES string. Values after ≈ are worked out from the molar mass of the structure shown. Where two headings read alike, the source gives them in different places.

Common to all, as to assay: MIC, broth micro dilution assay (NCCLS)
Common to all, as to format: cell-based

Test [1] has as its system Staphylococcus aureus A15090. The settings on record: for MIC: Staphylococcus aureus, read-out: MIC (μg/mL) against Staphylococcus aureus A15090.
Test [2] deals with Streptococcus pneumoniae A28272. The settings on record: for MIC: Streptococcus pneumoniae, read-out: MIC (μg/mL) against Streptococcus pneumoniae A28272.
Test [3] relates to Enterococcus faecalis A20688. As to conditions: for MIC: Enterococcus faecalis, read-out: MIC (μg/mL) against Enterococcus faecalis A20688.
Where [4] appears, read: Mueller-Hinton medium, 35° C., 18 hours.
[5] abbreviates: 50% Mueller-Hinton medium and 50% Todd Hewitt medium, 35° C., 18 hours.

`CO/C(C)=C1/NC(=O)C(C(C)O)NC(=O)c2csc(n2)-c2cc(O)c(-c3nc(C(=O)NC(CN(C)CCN4CCCCC4)C(N)=O)cs3)nc2-c2csc(n2)C2COC(=O)c3c4c5c(cccc5n3O)COC(=O)C(O[C@H]3C[C@](C)(O)[C@H](N(C)C)[C@H](C)O3)C(OC4)C(NC(=O)c3csc1n3)c1nc(cs1)C(=O)N2` (stereo partly drawn) [Example 30]: the “MIC (μg/mL) against Staphylococcus aureus A15090” value in test [1] came to 0.125 µg/mL (≈ 0.0791 µM). For the same compound, the “MIC (μg/mL) against Streptococcus pneumoniae A28272” value in test [2] was 0.03 µg/mL (≈ 0.019 µM). Besides, the “MIC (μg/mL) against Enterococcus faecalis A20688” value in test [3] worked out at 1.0 µg/mL (≈ 0.633 µM).
For `COC(C)=C1NC(=O)C(C(C)O)NC(=O)c2csc(n2)-c2cc(O)c(-c3nc(C(=O)NC(CSCC(NC(C)=O)C(=O)O)C(N)=O)cs3)nc2-c2csc(n2)C2COC(=O)c3c4c5c(cccc5n3O)COC(=O)C(OC3CC(C)(O)C(N(C)C)C(C)O3)C(OC4)C(NC(=O)c3csc1n3)c1nc(cs1)C(=O)N2` (stereo not drawn) [Example 43], the “MIC (μg/mL) against Staphylococcus aureus A15090” value in test [1] (setting [4]) was determined as 2.0 µg/mL (≈ 1.25 µM). Moreover, the “MIC (μg/mL) against Streptococcus pneumoniae A28272” value in test [2] (setting [5]) amounted to 0.125 µg/mL (≈ 0.0781 µM). The “MIC (μg/mL) against Enterococcus faecalis A20688” value in test [3] (setting [4]) was 8.0 µg/mL (≈ 5 µM).
Taken in the same sequence, the figures for `COC(C)=C1NC(=O)C(C(C)O)NC(=O)c2csc(n2)-c2cc(O)c(-c3nc(C(=O)NC(CN4CCCC4C(C)O)C(N)=O)cs3)nc2-c2csc(n2)C2COC(=O)c3c4c5c(cccc5n3O)COC(=O)C(OC3CC(C)(O)C(N(C)C)C(C)O3)C(OC4)C(NC(=O)c3csc1n3)c1nc(cs1)C(=O)N2` (stereo not drawn) [Example 86] were 0.007 µg/mL (≈ 0.00451 µM), 0.015 µg/mL (≈ 0.00966 µM) and 0.06 µg/mL (≈ 0.0386 µM).
Taken in the same sequence, the figures for `CO/C(C)=C1/NC(=O)C(C(C)O)NC(=O)c2csc(n2)-c2cc(O)c(-c3nc(C(=O)NC(CN4CCN(CC(=O)O)CC4)C(N)=O)cs3)nc2-c2csc(n2)C2COC(=O)c3c4c5c(cccc5n3O)COC(=O)C(O[C@H]3C[C@](C)(O)[C@H](N(C)C)[C@H](C)O3)C(OC4)C(NC(=O)c3csc1n3)c1nc(cs1)C(=O)N2` (stereo partly drawn) [Example 39] were 1.0 µg/mL (≈ 0.632 µM), 0.03 µg/mL (≈ 0.019 µM) and 1.0 µg/mL (≈ 0.632 µM).
Taken in the same sequence, the figures for `CCNCCN(CC)CC(NC(=O)c1csc(-c2nc3c(cc2O)-c2nc(cs2)C(=O)NC(C(C)O)C(=O)N/C(=C(\C)OC)c2nc(cs2)C(=O)NC2c4nc(cs4)C(=O)NC(COC(=O)c4c5c6c(cccc6n4O)COC(=O)C(O[C@H]4C[C@](C)(O)[C@H](N(C)C)[C@H](C)O4)C2OC5)c2nc-3cs2)n1)C(N)=O` (stereo partly drawn) [Example 25] were 1.0 µg/mL (≈ 0.644 µM), 0.0005 µg/mL (≈ 0.000322 µM) and 2.0 µg/mL (≈ 1.29 µM).
Consider `COC(C)=C1NC(=O)C(C(C)O)NC(=O)c2csc(n2)-c2cc(O)c(-c3nc(C(=O)NC(CN4CCN(c5cccnc5)CC4)C(N)=O)cs3)nc2-c2csc(n2)C2COC(=O)c3c4c5c(cccc5n3O)COC(=O)C(OC3CC(C)(O)C(N(C)C)C(C)O3)C(OC4)C(NC(=O)c3csc1n3)c1nc(cs1)C(=O)N2` (stereo not drawn) [Example 85], for which the “MIC (μg/mL) against Staphylococcus aureus A15090” value in test [1] is 0.06 µg/mL (≈ 0.0375 µM). The “MIC (μg/mL) against Streptococcus pneumoniae A28272” value in test [2] amounted to 0.007 µg/mL (≈ 0.00437 µM). In addition, the “MIC (μg/mL) against Enterococcus faecalis A20688” value in test [3] was found to be 0.25 µg/mL (≈ 0.156 µM).
Turning to `CO/C(C)=C1/NC(=O)C(C(C)O)NC(=O)c2csc(n2)-c2cc(O)c(-c3nc(C(=O)NC(CSC(CC(=O)O)C(=O)O)C(N)=O)cs3)nc2-c2csc(n2)C2COC(=O)c3c4c5c(cccc5n3O)COC(=O)C(O[C@H]3C[C@](C)(O)[C@H](N(C)C)[C@H](C)O3)C(OC4)C(NC(=O)c3csc1n3)c1nc(cs1)C(=O)N2` (stereo partly drawn) [Example 42], the “MIC (μg/mL) against Staphylococcus aureus A15090” value in test [1] (setting [4]) is 4.0 µg/mL (≈ 2.52 µM). Also, the “MIC (μg/mL) against Streptococcus pneumoniae A28272” value in test [2] (setting [5]) was determined as 0.25 µg/mL (≈ 0.157 µM). Besides, in test [3] (setting [4]), the “MIC (μg/mL) against Enterococcus faecalis A20688” value is 4.0 µg/mL (≈ 2.52 µM).
As to `CNC(=O)N(CCN(C)C)CC(NC(=O)c1csc(-c2nc3c(cc2O)-c2nc(cs2)C(=O)NC(C(C)O)C(=O)N/C(=C(\C)OC)c2nc(cs2)C(=O)NC2c4nc(cs4)C(=O)NC(COC(=O)c4c5c6c(cccc6n4O)COC(=O)C(OC4CC(C)(O)C(N(C)C)C(C)O4)C2OC5)c2nc-3cs2)n1)C(N)=O` (stereo not drawn) [Example 110], the “MIC (μg/mL) against Staphylococcus aureus A15090” value in test [1] was 0.5 µg/mL (≈ 0.316 µM). For the same compound, in test [2], the “MIC (μg/mL) against Streptococcus pneumoniae A28272” value amounted to 0.03 µg/mL (≈ 0.019 µM). Further, the “MIC (μg/mL) against Enterococcus faecalis A20688” value in test [3] was 2.0 µg/mL (≈ 1.26 µM).
Taken in the same sequence, the figures for `CO/C(C)=C1/NC(=O)C(C(C)O)NC(=O)c2csc(n2)-c2cc(O)c(-c3nc(C(=O)NC(CNCCOCCOCCO)C(N)=O)cs3)nc2-c2csc(n2)C2COC(=O)c3c4c5c(cccc5n3O)COC(=O)C(O[C@H]3C[C@](C)(O)[C@H](N(C)C)[C@H](C)O3)C(OC4)C(NC(=O)c3csc1n3)c1nc(cs1)C(=O)N2` (stereo partly drawn) [Example 55] were 0.25 µg/mL (≈ 0.158 µM), 0.06 µg/mL (≈ 0.0378 µM) and 0.5 µg/mL (≈ 0.315 µM).
Regarding `C/C=C1\NC(=O)C(C(C)O)NC(=O)c2csc(n2)-c2cc(O)c(-c3nc(C(=O)NC(CSCCN(CC)CC)C(N)=O)cs3)nc2-c2csc(n2)C2CSC(=O)c3[nH]c4cccc(c4c3C)COC(=O)C(O)CC(NC(=O)c3csc1n3)c1nc(cs1)C(=O)N2` (stereo not drawn) [Example 102], the MIC was found to be 0.125 µg/mL (≈ 0.0922 µM) in test [1] (A15090, 18 h); 0.03 µg/mL (≈ 0.0221 µM) in test [2] (A28272, 18 h); 0.25 µg/mL (≈ 0.184 µM) in test [3] (A20688, 18 h).
For the compound `CO/C(C)=C1/NC(=O)C(C(C)O)NC(=O)c2csc(n2)-c2cc(O)c(-c3nc(C(=O)NC(CN(C)CCCn4ccnc4)C(N)=O)cs3)nc2-c2csc(n2)C2COC(=O)c3c4c5c(cccc5n3O)COC(=O)C(O[C@H]3C[C@](C)(O)[C@H](N(C)C)[C@H](C)O3)C(OC4)C(NC(=O)c3csc1n3)c1nc(cs1)C(=O)N2` (stereo partly drawn) [Example 41], the “MIC (μg/mL) against Staphylococcus aureus A15090” value in test [1] (setting [4]) amounted to 0.5 µg/mL (≈ 0.317 µM). In addition, in test [2] (setting [5]), the “MIC (μg/mL) against Streptococcus pneumoniae A28272” value was found to be 0.125 µg/mL (≈ 0.0793 µM). In test [3] (setting [4]), the “MIC (μg/mL) against Enterococcus faecalis A20688” value was 0.5 µg/mL (≈ 0.317 µM).
Regarding `C/C=C1\NC(=O)C(C(C)O)NC(=O)c2csc(n2)-c2cc(O)c(-c3nc(C(=O)NC(CN(C)CCCn4ccnc4)C(N)=O)cs3)nc2-c2csc(n2)C2CSC(=O)c3[nH]c4cccc(c4c3C)COC(=O)C(O)CC(NC(=O)c3csc1n3)c1nc(cs1)C(=O)N2` (stereo not drawn) [Example 101], the MIC in test [1] (A15090, Mueller-Hinton medium, 35° C., 18 hours) amounted to 0.125 µg/mL (≈ 0.0918 µM); in test [2] (A28272, 50% Mueller-Hinton medium and 50% Todd Hewitt medium, 35° C., 18 hours), 0.003 µg/mL (≈ 0.0022 µM); in test [3] (A20688, Mueller-Hinton medium, 35° C., 18 hours), 0.125 µg/mL (≈ 0.0918 µM).
Regarding `CO/C(C)=C1/NC(=O)C(C(C)O)NC(=O)c2csc(n2)-c2cc(O)c(-c3nc(C(=O)NC(CNCc4nn[nH]n4)C(N)=O)cs3)nc2-c2csc(n2)C2COC(=O)c3c4c5c(cccc5n3O)COC(=O)C(O[C@H]3C[C@](C)(O)[C@H](N(C)C)[C@H](C)O3)C(OC4)C(NC(=O)c3csc1n3)c1nc(cs1)C(=O)N2` (stereo partly drawn) [Example 50], in test [1], the “MIC (μg/mL) against Staphylococcus aureus A15090” value was found to be 0.25 µg/mL (≈ 0.163 µM). For the same compound, in test [2], the “MIC (μg/mL) against Streptococcus pneumoniae A28272” value is 0.25 µg/mL (≈ 0.163 µM). The “MIC (μg/mL) against Enterococcus faecalis A20688” value in test [3] was 1.0 µg/mL (≈ 0.651 µM).
As to `COCC1CCCN1CC(NC(=O)c1csc(-c2nc3c(cc2O)-c2nc(cs2)C(=O)NC(C(C)O)C(=O)NC(=C(C)OC)c2nc(cs2)C(=O)NC2c4nc(cs4)C(=O)NC(COC(=O)c4c5c6c(cccc6n4O)COC(=O)C(O)C2OC5)c2nc-3cs2)n1)C(N)=O` (stereo not drawn) [Example 98], the “MIC (μg/mL) against Staphylococcus aureus A15090” value in test [1] (setting [4]) came to 0.03 µg/mL (≈ 0.0217 µM). Moreover, the “MIC (μg/mL) against Streptococcus pneumoniae A28272” value in test [2] (setting [5]) came out at 0.003 µg/mL (≈ 0.00217 µM). In test [3] (setting [4]), the “MIC (μg/mL) against Enterococcus faecalis A20688” value came to 0.5 µg/mL (≈ 0.362 µM).
